Laboratory results: patent publication US20230374015A1, “INHIBITORS OF FIBROBLAST GROWTH FACTOR RECEPTOR KINASES” (Kinnate Biopharma Inc., priority 2020, published 2023)

Target: FGFR2 (Homo sapiens, UniProt P21802)
Test: FGFR2 Kinase Protocol - Condition 2 (Reaction Biology HotSpot radiometric kinase assay, no preincubation)
Assay type: biochemical
Conditions: poly[Glu:Tyr] (4:1) 0.2 mg/ml, ATP 100 microM, 2 hr room temperature
Protocol: Example 2: FGFR2 Kinase Protocol—Condition 2
The Reaction Biology HotSpot assay platform (http://www.reactionbiology.com) was used to measure kinase/inhibitor interactions as described previously (Anastassiadis et al., 2011). In brief, for each reaction, kinase and substrate were mixed in a buffer containing 20 mM HEPES (pH 7.5), 10 mM MgCl2, 1 mM EGTA, 0.02% Brij35, 0.02 mg/mL BSA, 0.1 mM Na3VO4, 2 mM DTT, and 1% DMSO. All compounds were in powder form and freshly solubilized in DMSO for assays. Compounds were then added to each reaction mixture via acoustic dispense using an ECHO 550 nanoliter dispenser. For Human FGFR2 wildtype testing, a peptide substrate, poly[Glu:Tyr] (4:1) was used to promote the reaction at a concentration of 0.2 mg/ml. For Human FGFR2 (V564F) testing, a peptide substrate, poly[Glu:Tyr] (4:1) was used to promote the reaction at a concentration of 0.2 mg/ml. ATP concentration for all assays was maintained at 100 micromolar. Compounds were tested in 10-dose IC50 mode with a 3-fold serial dilution. Compounds were added to plates and ATP was added directly to the wells. ATP (Sigma-Aldrich, St. Louis, MO 63178) and [g33P] ATP (specific activity 10 microCi/microliter) purchased at PerkinElmer (Boston, MA, 02118 Cat #BLU 003H250UC) were added at a final total concentration of 100 microM to each well with no preincubation. Reactions were carried out at room temperature for 2 hr and spotted onto P81 ion exchange cellulose chromatography paper (Reaction Biology). Filter paper was washed in 0.75% phosphoric acid to remove unincorporated ATP. The percent remaining kinase activity relative to a vehicle-containing (DMSO) kinase reaction was calculated for each kinase/inhibitor pair. IC50 values were calculated using Dotmatics Knowledge Solutions Studies curve fitting (Dotmatics, Bishops Stortford, UK, CM23).

FGFR2, sequence (P21802 22-821): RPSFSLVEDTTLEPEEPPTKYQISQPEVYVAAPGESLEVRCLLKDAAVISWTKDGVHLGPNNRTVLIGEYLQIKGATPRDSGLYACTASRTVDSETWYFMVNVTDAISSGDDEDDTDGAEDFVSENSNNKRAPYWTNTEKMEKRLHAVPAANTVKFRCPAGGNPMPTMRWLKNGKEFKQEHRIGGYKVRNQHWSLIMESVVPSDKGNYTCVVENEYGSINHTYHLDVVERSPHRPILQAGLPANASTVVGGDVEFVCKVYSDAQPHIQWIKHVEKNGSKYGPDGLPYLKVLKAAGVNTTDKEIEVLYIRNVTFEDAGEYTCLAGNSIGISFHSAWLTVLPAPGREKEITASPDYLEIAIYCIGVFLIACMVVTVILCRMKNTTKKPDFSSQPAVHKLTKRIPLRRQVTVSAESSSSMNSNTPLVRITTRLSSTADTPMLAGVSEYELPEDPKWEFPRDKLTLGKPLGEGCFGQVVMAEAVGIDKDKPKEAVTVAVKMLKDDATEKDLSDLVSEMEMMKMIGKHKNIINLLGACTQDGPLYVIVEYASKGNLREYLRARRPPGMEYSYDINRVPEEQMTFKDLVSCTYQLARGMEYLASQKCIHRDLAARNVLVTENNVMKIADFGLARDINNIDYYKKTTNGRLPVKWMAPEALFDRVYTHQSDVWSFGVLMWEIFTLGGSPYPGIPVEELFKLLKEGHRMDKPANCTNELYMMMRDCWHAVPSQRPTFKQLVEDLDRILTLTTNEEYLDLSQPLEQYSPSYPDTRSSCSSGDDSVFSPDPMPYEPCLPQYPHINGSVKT

| SMILES | IC50 [nM] |
| --- | --- |
| C=CC(=O)N1C[C@@H](n2nc(C#Cc3cc4ncn(C5CC5)c4cc3F)c3c(N)ncnc32)C[C@@H]1C(F)F [Example 178, 1-((2R,4S)-4-(4-amino-3-((1-cyclopropyl-6-fluoro-1H-benzo[d]imidazol-5-yl)ethynyl)-1H-pyrazolo[3,4-d]pyrimidin-1-yl)-2-(difluoromethyl)pyrrolidin-1-yl)prop-2-en-1-one] | ≤ 100 |
| C=CC(=O)N1C[C@@H](n2nc(C#Cc3cc4ncn(C)c4cc3Cl)c3c(N)nccc32)C[C@@H]1C [Example 167, 1-((2S,4S)-4-(4-amino-3-((6-chloro-1-methyl-1H-benzo[d]imidazol-5-yl)ethynyl)-1H-pyrazolo[4,3-c]pyridin-1-yl)-2-methylpyrrolidin-1-yl)prop-2-en-1-one] | ≤ 100 |
| C=CC(=O)N1C[C@@H](n2cc(C#Cc3c(Cl)cc4c(nc(C)n4C)c3F)c3c(N)ncnc32)C[C@@H]1COC [Example 113, 1-((2R,4S)-4-(4-Amino-5-((6-chloro-4-fluoro-1,2-dimethyl-1H-benzo[d]imidazol-5-yl)ethynyl)-7H-pyrrolo[2,3-d]pyrimidin-7-yl)-2-(methoxymethyl)pyrrolidin-1-yl)prop-2-en-1-one] | ≤ 100 |
| C=CC(=O)N1C[C@@H](n2cc(C#Cc3c(F)cc4[nH]c(C)nc4c3F)c3c(N)ncnc32)C[C@@H]1COC [Example 107, 1-[(2R,4S)-4-[4-Amino-5-[2-(4,6-difluoro-2-methyl-1H-1,3-benzodiazol-5-yl)ethynyl]pyrrolo[2,3-d]pyrimidin-7-yl]-2-(methoxymethyl)pyrrolidin-1-yl]prop-2-en-1-one] | ≤ 100 |
| C=CC(=O)N1C[C@@H](n2nc(C#Cc3c(F)cc4c(ncn4C4CC4)c3F)c3c(N)ncnc32)C[C@@H]1COC [Example 72, 1-[(2R,4S)-4-[4-Amino-3-[2-(1-cyclopropyl-4,6-difluoro-1,3-benzodiazol-5-yl)ethynyl]pyrazolo[3,4-d]pyrimidin-1-yl]-2-(methoxymethyl)pyrrolidin-1-yl]prop-2-en-1-one] | ≤ 100 |
| C=CC(=O)N1CC[C@H](n2cc(C#Cc3cc4ncn(C)c4cc3F)c3c(N)ncnc32)C1 [Example 142, (S)-1-(3-(4-Amino-5-((6-fluoro-1-methyl-1H-benzo[d]imidazol-5-yl)ethynyl)-7H-pyrrolo[2,3-d]pyrimidin-7-yl)pyrrolidin-1-yl)prop-2-en-1-one] | ≤ 100 |
| C=CC(=O)N1C[C@@H](n2nc(C#Cc3c(Cl)cc4c(ncn4C)c3F)c3c(N)nccc32)C[C@@H]1COC [Example 105, 1-[(2R,4S)-4-[4-Amino-3-[2-(6-chloro-4-fluoro-1-methyl-1,3-benzodiazol-5-yl)ethynyl]pyrazolo[4,3-c]pyridin-1-yl]-2-(methoxymethyl)pyrrolidin-1-yl]prop-2-en-1-one] | ≤ 100 |
| C=CC(=O)N1C[C@@H](n2nc(C#Cc3c(F)cc4c(cnn4C)c3F)c3c(N)nccc32)C[C@@H]1COC [Example 50, 1-((2R,4S)-4-(4-amino-3-((4,6-difluoro-1-methyl-1H-indazol-5-yl)ethynyl)-1H-pyrazolo[4,3-c]pyridin-1-yl)-2-(methoxymethyl)pyrrolidin-1-yl)prop-2-en-1-one] | ≤ 100 |
| C=CC(=O)N1C[C@@H](n2nc(C#Cc3ccc4nn(C)cc4c3)c3c(N)nccc32)C[C@@H]1COC [Example 36, 1-[(2R,4S)-4-[4-amino-3-[2-(2-methylindazol-5-yl)ethynyl]pyrazolo[4,3-c]pyridin-1-yl]-2-(methoxymethyl)pyrrolidin-1-yl]prop-2-en-1-one] | 100 to 1000 |
| C=CC(=O)N1C[C@@H](n2nc(C#Cc3cc4ncn(C)c4cc3F)c3c(N)nccc32)C[C@@H]1CF [Example 185, 1-[(2R,4S)-4-{4-Amino-3-[2-(6-fluoro-1-methyl-1,3-benzodiazol-5-yl)ethynyl]pyrazolo[4,3-c]pyridin-1-yl}-2-(fluoromethyl)pyrrolidin-1-yl]prop-2-en-1-one] | ≤ 100 |
| C=CC(=O)N1C[C@@H](n2cc(C#Cc3c(F)cc4c(ncn4CC)c3F)c3c(N)ncnc32)C[C@@H]1COC [Example 87, 1-[(2R,4S)-4-[4-Amino-5-[2-(1-ethyl-4,6-difluoro-1,3-benzodiazol-5-yl)ethynyl]pyrrolo[2,3-d]pyrimidin-7-yl]-2-(methoxymethyl)pyrrolidin-1-yl]prop-2-en-1-one] | ≤ 100 |
| C=CC(=O)N1C[C@@H](n2nc(C#Cc3c(F)cc4c(nc(C)n4CC)c3F)c3c(N)nccc32)C[C@@H]1COC [Example 33, 1-((2R,4S)-4-(4-amino-3-((1-ethyl-4,6-difluoro-2-methyl-1H-benzo[d]imidazol-5-yl)ethynyl)-1H-pyrazolo[4,3-c]pyridin-1-yl)-2-(methoxymethyl)pyrrolidin-1-yl)prop-2-en-1-one] | ≤ 100 |
| C=CC(=O)N1C[C@@H](n2nc(C#Cc3c(F)cc4c(ncn4C4CC4)c3F)c3c(N)ncnc32)C[C@@H]1COC(F)(F)F [Example 76, 1-[(2R,4S)-4-[4-Amino-3-[2-(1-cyclopropyl-4,6-difluoro-1,3-benzodiazol-5-yl)ethynyl]pyrazolo[3,4-d]pyrimidin-1-yl]-2-[(trifluoromethoxy)methyl]pyrrolidin-1-yl]prop-2-en-1-one] | ≤ 100 |
| C=CC(=O)N1C[C@@H](n2nc(C#Cc3cc4ncn(C)c4cc3F)c3c(N)ncnc32)C[C@@H]1C(F)F [Example 177, 1-((2R,4S)-4-(4-amino-3-((6-fluoro-1-methyl-1H-benzo[d]imidazol-5-yl)ethynyl)-1H-pyrazolo[3,4-d]pyrimidin-1-yl)-2-(difluoromethyl)pyrrolidin-1-yl)prop-2-en-1-one] | ≤ 100 |
| C=CC(=O)N1C[C@@H](n2cc(C#Cc3cc4ncn(C)c4cc3F)c3c(N)ncnc32)C[C@@H]1COC [Example 63, 1-[(2R,4S)-4-[4-Amino-5-[2-(6-fluoro-1-methyl-1,3-benzodiazol-5-yl)ethynyl]pyrrolo[2,3-d]pyrimidin-7-yl]-2-(methoxymethyl)pyrrolidin-1-yl]prop-2-en-1-one] | ≤ 100 |
| C=CC(=O)N1C[C@@H](n2nc(C#Cc3ccc4ocnc4c3)c3c(N)ncnc32)C[C@@H]1COC [Example 115, 1-[(2R,4S)-4-[4-Amino-3-[2-(1,3-benzoxazol-5-yl)ethynyl]pyrazolo[3,4-d]pyrimidin-1-yl]-2-(methoxymethyl)pyrrolidin-1-yl]prop-2-en-1-one] | ≤ 100 |
| C=CC(=O)N1C[C@@H](n2nc(C#Cc3ccc4c(c3)nc(C(F)(F)F)n4C)c3c(N)ncnc32)C[C@@H]1COC [Example 46, 1-((2R,4S)-4-(4-amino-3-((1-methyl-2-(trifluoromethyl)-1H-benzo[d]imidazol-5-yl)ethynyl)-1H-pyrazolo[3,4-d]pyrimidin-1-yl)-2-(methoxymethyl)pyrrolidin-1-yl)prop-2-en-1-one] | ≤ 100 |
| C=CC(=O)N1C[C@@H](n2nc(C#Cc3c(Cl)cc4c(nc(C)n4C)c3F)c3c(N)nccc32)C[C@@H]1COC [Example 103, 1-((2R,4S)-4-(4-Amino-3-((6-chloro-4-fluoro-1,2-dimethyl-1H-benzo[d]imidazol-5-yl)ethynyl)-1H-pyrazolo[4,3-c]pyridin-1-yl)-2-(methoxymethyl)pyrrolidin-1-yl)prop-2-en-1-one] | ≤ 100 |
| C=CC(=O)N1C[C@@H](n2nc(C#Cc3cc4ncn(C)c4c(F)c3F)c3c(N)ncnc32)C[C@@H]1CC#N [Example 158, 2-[(2R,4S)-4-{4-Amino-3-[2-(6,7-difluoro-1-methyl-1,3-benzodiazol-5-yl)ethynyl]pyrazolo[3,4-d]pyrimidin-1-yl}-1-(prop-2-enoyl)pyrrolidin-2-yl]acetonitrile] | ≤ 100 |
| C=CC(=O)N1C[C@@H](n2nc(C#Cc3cc4ncn(CC)c4cc3Cl)c3c(N)ncnc32)C[C@@H]1C(F)F [Example 180, 1-((2R,4S)-4-(4-amino-3-((6-chloro-1-ethyl-1H-benzo[d]imidazol-5-yl)ethynyl)-1H-pyrazolo[3,4-d]pyrimidin-1-yl)-2-(difluoromethyl)pyrrolidin-1-yl)prop-2-en-1-one] | ≤ 100 |
| C=CC(=O)N1CC[C@H](n2nc(C#Cc3cc4nc(C)n(C)c4cc3F)c3c(N)ncnc32)C1 [Example 192, 1-[(3S)-3-{4-Amino-3-[2-(6-fluoro-1,2-dimethyl-1,3-benzodiazol-5-yl)ethynyl]pyrazolo[3,4-d]pyrimidin-1-yl}pyrrolidin-1-yl]prop-2-en-1-one] | ≤ 100 |
| C=CC(=O)N1C[C@@H](n2cc(C#Cc3ccc4c(c3)ncn4C)c3c(N)ncnc32)C[C@@H]1COC(F)(F)F [Example 66, 1-[(2R,4S)-4-[4-Amino-5-[2-(1-methyl-1,3-benzodiazol-5-yl)ethynyl]pyrrolo[2,3-d]pyrimidin-7-yl]-2-[(trifluoromethoxy)methyl]pyrrolidin-1-yl]prop-2-en-1-one] | ≤ 100 |
